Results on one compound are retold here after paper PMC7689089, “Regorafenib combined with PD1 blockade increases CD8 T-cell infiltration by inducing CXCL10 expression in hepatocellular carcinoma” (Journal for Immunotherapy of Cancer, 2020).

The test system of one data set is RIL-175 orthotopic HCC. Nature of the data set: Survival, orthotopic RIL-175 HCC in Rag1–/–/C57Bl/6 mice. The conditions noted are these: regorafenib 10 mg/kg; Rag1–/– mice lacking functional T cells. It is filed as in vivo, mouse. As to the method: Regorafenib was provided by Bayer and administered by oral gavage daily at a dose of 5, 10 and 20 mg/kg in 34% 1,2-propandiol (Sigma-Aldrich), 34% PEG400 (Sigma-Aldrich), 12% pluronic F68 (Thermo Fischer Scientific, Waltham, Massachusetts, USA), and 20% water, as per manufacturer’s recommendation. Mouse anti-PD1 antibody (clone RMP-014) was purchased from BioXcell (Lebanon, New Hampshire, USA) and Mouse IgG isotype control was purchased from Thermo Fischer Scientific. The STAT3 inhibitor LLL12 was purchased from BioVision (Milpitas, California, USA). Antimouse PD1 antibody or IgG (control) were given intraperitoneally at a dose of 10 mg/kg thrice weekly, as described.[11] Daily gavage of vehicle and intraperitoneal injection of 10 mg/kg of isotype-matched IgG were given as control treatments for anti-PD1 antibody. For the survival studies, moribund status was used as the end point and moribund was defined as symptoms of prolonged distress, >15% of weight loss compared with the starting date, body condition score >2 and tumor size of >24 mm in diameter.
All statistical analyzes were performed using Stata software, V.14.1 (StataCorp, College Station, Texas, USA). […] Quantitative variables were compared using Student’s t-test. […] Statistical analyses in the survival experiments were performed by Cox proportional hazard model and HR and 95% CIs were calculated as well.

The next data set relates to HCA1 cells. Nature of the data set: CXCL10 secretion by HCA1 cells in vitro. In kind it is cell-based, mouse. The note with it: 36hr; compared with increase in RIL-175 cells.
A further data set relates to RIL-175 HCC vasculature. Nature of the data set: Tumor vessel and hypoxia immunofluorescence (CD31, α-SMA, CA-IX) in RIL-175 orthotopic HCC. The note with it: regorafenib 10 mg/kg; day 12; vs control. In kind it is in vivo, mouse. The procedure: Figure 1 Dose-dependent effects of regorafenib on vascular normalization when used in combination with programmed cell death protein 1 (PD1) blockade in RIL-175 hepatocellular carcinoma (HCC) model. (A, B) Mice with established (4–5 mm in diameter) HCCs were treated with anti-PD1 therapy (P) alone or in combination with 5 mg/kg (R5), 10 mg/kg (R10) or 20 mg/kg (R20) regorafenib versus control (C) (n=8 mice per group, 1-week treatment). We used immunofluorescence (IF) for evaluation of tumor vessels by CD31 and α-smooth muscle actin (α-SMA) immunostaining. […] Representative IF of tumor sections after staining for CD31 (for endothelial cells in green) and α-SMA (for pericytes in red) and DAPI counterstaining (in blue). Five random fields from the tumor center (defined as no inclusion of the edge of the tumor) were evaluated for each sample. Data represent mean values. Scale bars=500 µm. (C) Representative IF confocal microscopy images of tumor vessels using and CD31 staining (green) and tissue hypoxia using CA-IX staining (red) of whole liver sections; scale bars=2 mm. […] (E) Representative IF confocal microscopy images of mature tumor vessels using CD31 staining (green) and α-SMA staining (red) of RIL-175 tumors; scale bars, 100 µm.

For another data set, the system named is CXCL10. Nature of the data set: Plasma CXCL10 in patients before and after 2 weeks of regorafenib. It is filed as in vivo, human. The conditions noted are these: patients with advanced HCC (n=1) and AML (n=7); after 2 weeks of treatment. The text has this: Formalin-fixed paraffin-embedded HCC tissue and blood samples were obtained with informed consent from a published cohort of deidentified patients who underwent liver resection at the department of Surgery at Fundeni Clinical Institute, Bucharest, Romania.[31] Furthermore, we collected blood samples with informed consent from patients treated by regorafenib as standard of care (HCC) or in a phase I clinical trial of regorafenib monotherapy in patients with acute myeloid leukemia (AML). Peripheral blood was collected before regorafenib therapy and after 2 weeks of treatment and processed in a Clinical Laboratory Improvement Amendments-certified facility of the Steele Laboratories at MGH. […]
treated by regorafenib as standard of care (HCC) (using the DFCI Protocol No.: 13-416 “Collection of Specimens and Clinical Data for Patients with Known or Suspected Solid Tumors”, PI, Dr. Juric, MGH) or in a phase I clinical trial of regorafenib monotherapy in acute myeloid leukemia (AML) patients (ClinicalTrials.gov Identifier: NCT03042689, PI, Hobbs, MGH). Both protocols have been IRB approved, and written consent was obtained from all patients.
Protein analyses. […]
Flow cytometry analysis. […] After preparation, cells were suspended in 2ml of PBS with 2% BSA, then counted using a cell counting plate (Kova slide) (if the final concentration of cell exceeded 10^7 cells/ml, a dilution factor was applied). […]

The nature of a further data set: in vivo. The note with it: C57Bl/6, mouse, po; for AUC: Plasma AUC; for Cmax: Plasma Cmax.

Description for in vivo: From the orthotopic HCC and liver damage mouse models described above, blood samples were collected at 1, 4, 7 and 24 hours after once-daily oral administration of 5, 10 and 20 mg/kg regorafenib, respectively, for 5 days. Anti-PD1 antibody was given on days 1 and 4 with dose of 10 mg/kg by intraperitoneal injection. Blood samples were drawn from four to five animals per sampling time point. Regorafenib and its active metabolites M-2, M-4 and M-5 were analyzed in plasma samples using a validated bioanalytical liquid chromatography-tandem mass spectrometry.[25 33] Pharmacokinetic (PK) parameters were derived from the area under the plasma concentration versus time curve (AUC) using a non-compartmental analysis.
In addition, we evaluated PK parameters in HCC-bearing mice after regorafenib administration alone at doses of 5, 10 and 20 mg/kg or in combination with anti-PD1 therapy at the 10 mg/kg regorafenib dose for 5 days to achieve a steady state.

In the case of `CNC(=O)c1cc(Oc2ccc(NC(=O)Nc3ccc(Cl)c(C(F)(F)F)c3)c(F)c2)ccn1` [regorafenib], in the data set with RIL-175 orthotopic HCC, the Survival result is on record as “no significant benefit”. Also, the “Level of CXCL10 secreted by HCA1 cells” value with HCA1 cells is “to a lesser extent”. Further, the “Hypoxic tissue area measured by CA-IX staining” value with RIL-175 HCC vasculature is “significantly decreased”. Moreover, the MVD result in the data set on RIL-175 HCC vasculature is “significant increase”. In addition, in the data set on CXCL10, the “Concentration of plasma CXCL10” value is “increased concentration”. Also, the AUC in the data set “in vivo” (5 mg/kg) was determined as 1450 ng·h/mL; in the data set “in vivo” (10 mg/kg), 2160 ng·h/mL; in the data set “in vivo” (20 mg/kg), 5750 ng·h/mL. For the same compound, the Cmax was found to be 108 ng/mL in the data set “in vivo” (5 mg/kg), 201 ng/mL in the data set “in vivo” (10 mg/kg) and 485 ng/mL in the data set “in vivo” (20 mg/kg). The Tmax in the data set “in vivo” (10 mg/kg, Plasma Tmax) was determined as 1 h; in “in vivo” (10 mg/kg, Tumor Tmax), 7 h.
